Experimental data from ChEMBL document CHEMBL4312010, “Synthesis and antibacterial evaluation of novel oxazolidinone derivatives containing a piperidinyl moiety” (Bioorg Med Chem Lett, 2019).
Values after ≈ are worked out from the molar mass of the structure shown.

Columns and labels:
HepG2 = assay: Cytotoxicity against human HepG2 cells assessed as reduction in cell viability; type: cell-based
Enterococcus faecium [1] = assay: Antibacterial activity agianst vancomycin-resistant Enterococcus faecium clinical isolates; type: functional
Enterococcus faecium [2] = assay: Antibacterial activity agianst vancomycin-resistant Enterococcus faecium; type: functional
Staphylococcus aureus [3] = assay: Antibacterial activity agianst methicillin-sensitive Staphylococcus aureus clinical isolates; type: functional
Staphylococcus aureus [4] = assay: Antibacterial activity agianst methicillin-sensitive Staphylococcus aureus; type: functional
Enterococcus faecalis [5] = assay: Antibacterial activity agianst linezolid-resistant Enterococcus faecalis clinical isolates; type: functional
[6] = target: T1, MAO-A (amine oxidase [flavin-containing] A) (Homo sapiens, UniProt P21397); assay: Inhibition of human MAO-A at 30 uM relative to control
T1 sequence (P21397 whole entry): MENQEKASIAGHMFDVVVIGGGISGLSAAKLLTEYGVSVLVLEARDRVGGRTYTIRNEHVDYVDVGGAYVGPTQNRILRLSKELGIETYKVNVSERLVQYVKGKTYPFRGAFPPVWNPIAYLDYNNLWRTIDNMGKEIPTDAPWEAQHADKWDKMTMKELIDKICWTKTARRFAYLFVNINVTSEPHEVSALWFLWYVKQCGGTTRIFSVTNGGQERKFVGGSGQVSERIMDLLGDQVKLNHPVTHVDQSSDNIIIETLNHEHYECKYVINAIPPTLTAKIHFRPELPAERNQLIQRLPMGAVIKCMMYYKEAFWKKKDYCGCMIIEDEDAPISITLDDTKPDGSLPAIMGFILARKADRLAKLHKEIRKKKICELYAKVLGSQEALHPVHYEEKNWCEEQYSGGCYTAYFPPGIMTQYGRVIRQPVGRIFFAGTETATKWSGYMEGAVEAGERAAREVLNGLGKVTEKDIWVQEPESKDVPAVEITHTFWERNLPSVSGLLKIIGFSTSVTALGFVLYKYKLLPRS

[7] = Metabolic stability in human liver microsomes assessed as parent compound remaining after 45 mins in presence of NADPH relative to control; type: ADME, Microsome; details: read-out: Stability
Staphylococcus aureus [8] = assay: Antibacterial activity agianst Staphylococcus aureus ATCC 29213; type: functional
Enterococcus faecalis [9] = assay: Antibacterial activity agianst linezolid-resistant Enterococcus faecalis; type: functional
Staphylococcus aureus [10] = assay: Antibacterial activity agianst methicillin-resistant Staphylococcus aureus clinical isolates; type: functional
Staphylococcus aureus [11] = assay: Antibacterial activity agianst methicillin-resistant Staphylococcus aureus; type: functional
Enterococcus faecalis [12] = assay: Potency index, ratio of linezolid MIC to compound MIC for antibacterial activity against linezolid-resistant Enterococcus faecalis clinical isolates; type: functional
Enterococcus faecalis [13] = assay: Potency index, ratio of linezolid MIC to compound MIC for antibacterial activity against linezolid-resistant Enterococcus faecalis; type: functional
[14] = Half life in human liver microsomes; type: ADME, Microsome
[15] = Intrinsic clearance in human liver microsomes; type: ADME, Microsome; details: read-out: CLH

Row | SMILES | IC50 (HepG2) [µM] | MIC (Enterococcus faecium [1]) [µg/mL] | MIC (Enterococcus faecium [2]) [µg/mL] | MIC (Staphylococcus aureus [3]) [µg/mL] | MIC (Staphylococcus aureus [4]) [µg/mL] | MIC (Enterococcus faecalis [5]) [µg/mL] | inhibition at 30 µM [6] [%] | remaining at 0.75 h [7] [%] | MIC (Staphylococcus aureus [8]) [µg/mL] | MIC (Enterococcus faecalis [9]) [µg/mL] | MIC (Staphylococcus aureus [10]) [µg/mL] | MIC (Staphylococcus aureus [11]) [µg/mL] | Ratio (Enterococcus faecalis [12]) | Ratio (Enterococcus faecalis [13]) | half-life [14] [h] | CLint scaled [15] [mL/min/kg]
1 | CC(=O)NC[C@H]1CN(c2ccc(N3CCOCC3)c(F)c2)C(=O)O1 [LINEZOLID] | > 64 | 1 to 4 (≈ 2.96 to 11.9 µM) | 2 (≈ 5.93 µM) | 1 to 2 (≈ 2.96 to 5.93 µM) | 1 (≈ 2.96 µM) | > 16 | 75 | 18 | 1 (≈ 2.96 µM) | > 16 | 1 to 4 (≈ 2.96 to 11.9 µM) | 1 (≈ 2.96 µM) | – | – | – | –
2 | CC(=O)NC[C@H]1CN(c2ccc(N3CCN(Cc4ccc([N+](=O)[O-])o4)CC3)c(F)c2)C(=O)O1 [RANBEZOLID] | – | – | 0.5 (≈ 1.08 µM) | – | 0.5 (≈ 1.08 µM) | – | – | – | 0.5 (≈ 1.08 µM) | 0.5 (≈ 1.08 µM) | – | 0.5 (≈ 1.08 µM) | – | – | – | –
3 | CC(=O)NC[C@H]1CN(c2ccc(N3CCC(NCc4ccccc4)CC3)c(F)c2)C(=O)O1 | – | – | 2 (≈ 4.54 µM) | – | 1 (≈ 2.27 µM) | – | – | – | 2 (≈ 4.54 µM) | 2 (≈ 4.54 µM) | – | 1 (≈ 2.27 µM) | – | – | – | –
4 | CC(=O)NC[C@H]1CN(c2ccc(N3CCC(Nc4ccc(Br)cc4F)CC3)c(F)c2)C(=O)O1 | – | – | 2 (≈ 3.82 µM) | – | 2 (≈ 3.82 µM) | – | – | – | 2 (≈ 3.82 µM) | 1 (≈ 1.91 µM) | – | 2 (≈ 3.82 µM) | – | – | – | –
5 | CC(=O)NC[C@H]1CN(c2ccc(N3CCN(/N=C/c4ccc([N+](=O)[O-])o4)CC3)c(F)c2)C(=O)O1 | – | – | 1 (≈ 2.11 µM) | – | – | – | – | – | 0.5 (≈ 1.05 µM) | – | – | 1 (≈ 2.11 µM) | – | – | – | –
6 | CC(=O)NC[C@H]1CN(c2ccc(N3CCC(N(C)c4ccc(Br)cc4)CC3)c(F)c2)C(=O)O1 | – | – | 1 (≈ 1.93 µM) | – | 2 (≈ 3.85 µM) | – | – | – | 2 (≈ 3.85 µM) | 1 (≈ 1.93 µM) | – | 2 (≈ 3.85 µM) | – | – | – | –
7 | CC(=O)NC[C@H]1CN(c2ccc(N3CCC(Nc4ccc(F)cc4)CC3)c(F)c2)C(=O)O1 | – | – | 1 (≈ 2.25 µM) | – | 1 (≈ 2.25 µM) | – | – | – | 1 (≈ 2.25 µM) | 1 (≈ 2.25 µM) | – | 0.5 (≈ 1.12 µM) | – | – | – | –
8 | CC(=O)NC[C@H]1CN(c2ccc(N3CCC(Nc4ccccc4OC(F)(F)F)CC3)c(F)c2)C(=O)O1 | – | – | 2 (≈ 3.92 µM) | – | 2 (≈ 3.92 µM) | – | – | – | 2 (≈ 3.92 µM) | 1 (≈ 1.96 µM) | – | 2 (≈ 3.92 µM) | – | – | – | –
9 | CC(=O)NC[C@H]1CN(c2ccc(N3CCC(Nc4ccccc4)CC3)c(F)c2)C(=O)O1 | – | 0.25 to 0.5 (≈ 0.586 to 1.17 µM) | 1 (≈ 2.34 µM) | 0.5 to 1 (≈ 1.17 to 2.34 µM) | 1 (≈ 2.34 µM) | 0.125 to 0.25 (≈ 0.293 to 0.586 µM) | 85 | – | 1 (≈ 2.34 µM) | 0.5 (≈ 1.17 µM) | – | 1 (≈ 2.34 µM) | – | – | – | –
10 | CC(=O)NC[C@H]1CN(c2ccc(N3CCC(Nc4cccc(OC(F)(F)F)c4)CC3)c(F)c2)C(=O)O1 | – | – | 2 (≈ 3.92 µM) | – | 2 (≈ 3.92 µM) | – | – | – | 2 (≈ 3.92 µM) | 2 (≈ 3.92 µM) | – | 2 (≈ 3.92 µM) | – | – | – | –
11 | CC(=O)NC[C@H]1CN(c2ccc(N3CCC(NCc4ccc(F)cc4)CC3)c(F)c2)C(=O)O1 | – | – | 2 (≈ 4.36 µM) | – | 1 (≈ 2.18 µM) | – | – | – | 1 (≈ 2.18 µM) | 2 (≈ 4.36 µM) | – | 1 (≈ 2.18 µM) | – | – | – | –
12 | CC(=O)NC[C@H]1CN(c2ccc(N3CCC(Nc4ccccc4Br)CC3)c(F)c2)C(=O)O1 | – | – | 2 (≈ 3.96 µM) | – | 2 (≈ 3.96 µM) | – | – | – | 2 (≈ 3.96 µM) | 2 (≈ 3.96 µM) | – | 2 (≈ 3.96 µM) | – | – | – | –
13 | CC(=O)NC[C@H]1CN(c2ccc(N3CCC(Nc4ccc(Br)cc4)CC3)c(F)c2)C(=O)O1 | > 64 | 0.125 to 0.25 (≈ 0.247 to 0.495 µM) | 0.25 (≈ 0.495 µM) | 0.5 to 1 (≈ 0.989 to 1.98 µM) | 1 (≈ 1.98 µM) | 0.0625 to 0.25 (≈ 0.124 to 0.495 µM) | 70 | 97 | 1 (≈ 1.98 µM) | 0.25 (≈ 0.495 µM) | – | 0.5 (≈ 0.989 µM) | 64 | 64 | 8.37 | 3.46
14 | CC(=O)NC[C@H]1CN(c2ccc(N3CCC(Nc4ccc(Cl)cc4)CC3)c(F)c2)C(=O)O1 | – | – | 2 (≈ 4.34 µM) | – | 2 (≈ 4.34 µM) | – | – | – | 2 (≈ 4.34 µM) | 2 (≈ 4.34 µM) | – | 2 (≈ 4.34 µM) | – | – | – | –
15 | CC(=O)NC[C@H]1CN(c2ccc(N3CCC(Nc4ccc(C(C)C)cc4)CC3)c(F)c2)C(=O)O1 | – | – | 0.5 (≈ 1.07 µM) | – | 2 (≈ 4.27 µM) | – | – | – | 2 (≈ 4.27 µM) | 0.5 (≈ 1.07 µM) | – | 1 (≈ 2.13 µM) | – | – | – | –
16 | CC(=O)NC[C@H]1CN(c2ccc(N3CCC(Nc4cccc(Br)c4)CC3)c(F)c2)C(=O)O1 | – | – | 2 (≈ 3.96 µM) | – | 2 (≈ 3.96 µM) | – | – | – | 2 (≈ 3.96 µM) | 2 (≈ 3.96 µM) | – | 2 (≈ 3.96 µM) | – | – | – | –
17 | CC(=O)NC[C@H]1CN(c2ccc(N3CCC(Nc4ccc(OC(F)(F)F)cc4)CC3)c(F)c2)C(=O)O1 | – | – | 0.5 (≈ 0.979 µM) | – | 1 (≈ 1.96 µM) | – | – | – | 1 (≈ 1.96 µM) | 0.5 (≈ 0.979 µM) | – | 1 (≈ 1.96 µM) | – | – | – | –
